{"source": "patent US6552208B1", "about": "“Fractionation process” (Karlshamns AB, priority 1998, dated 2003)", "tested_on": "Normal human dermal fibroblasts", "assay": "UV radiation test in vitro, UV-B", "assay_type": "cell-based", "conditions": "fibroblasts exposed to test substance 48 hours before UV irradiation; UV dose inducing 50% of cell death", "protocol": "The fractionated low-erucic rapeseed oil of Example 1, the canola oil fraction, was tested in vitro for its ability to decrease the damage to cells exposed to free radicals generated by exposure to UV radiation. Normal human dermal fibroblasts were exposed to the test substance at different concentrations 48 hours before UV irradiation. DL-α-tocopheryl acetate was used as a positive control in the study. The UV dose inducing 50% of cell death was determined after the treatment by exposing the cell cultures to UV-A and UV-B radiation at different intensities.", "data": [{"smiles": "CC(=O)Oc1c(C)c(C)c2c(c1C)CC[C@@](C)(CCC[C@H](C)CCC[C@H](C)CCCC(C)C)O2", "note": "(racemic) [DL-α-tocopheryl acetate]", "values": [{"measurement": "protection against UV-B radiation", "value": "neither the fractionated rapeseed oil of Example 1 or the DL-α-tocopheryl acetate gave any protection"}]}]}
